# Reference: patent US20240408169A1 (priority 2023, published 2024)
# Like-named read-outs stand apart in the source and are kept apart here. *1 amine or outer side, *2 acyl side, *3 side chain or, on linkers, in order; H or OH if unused. Where a SMILES comes first, the peptide text is derived from it. Bridges are numbered along the chain shown (N, C = ends). [ ]: non-standard residue; d: D form. The star is where a group is joined. X146 = CC(C)C(=O)N1[C@@H]2CC[C@H]1C=C(c1ccc(Cl)cc1C[C@@H](C(=O)[*:2])N(C)[*:1])C2; NMePhe(2-(4-MorPh),5-Cl) = CN[C@@H](Cc1cc(Cl)ccc1-c1ccc(N2CCOCC2)cc1)C(=O)O; X185 = CN([C@@H](Cc1cc(Cl)ccc1-c1ccc(N2CCOC(C)(C)C2)cc1)C(=O)[*:2])[*:1]; X208 = CN([C@@H](Cc1cc(F)ccc1-c1cnn(CC(F)F)c1)C(=O)[*:2])[*:1]; NMehhhLys(Me) = CN([C@@H](CCCCCCCN(C)[*:3])C(=O)[*:2])[*:1]; X117 = Cc1cc(-c2ccc(F)cc2C[C@@H](C(=O)[*:2])N(C)[*:1])cnn1; X207 = CN([C@@H](Cc1cc(F)ccc1-c1cn(C)cn1)C(=O)[*:2])[*:1]; X194 = CN([C@@H](Cc1cc(Cl)ccc1-c1ccnnc1)C(=O)[*:2])[*:1]; NMe(hhhLys) = CN([C@@H](CCCCCCCN[*:3])C(=O)[*:2])[*:1]; X143 = CN([C@@H](Cc1cc(F)cc2cccnc12)C(=O)[*:2])[*:1]; Cyclobutanecarbonyl(1-CF3) = O=C(C1(C(F)(F)F)CCC1)*; cBuCO(3,3-F2-1-CF3) = O=C(C1(C(F)(F)F)CC(F)(F)C1)*; X182 = N#Cc1ccc(CC[C@H](N[*:1])C(=O)[*:2])cn1; Pro(trans-4-F) = O=C(O)[C@@H]1C[C@@H](F)CN1; Gly(cPr) = N[C@H](C(=O)O)C1CC1
# Key:
# [1] = system: NCI-H1048 cells; test: MTT proliferation assay, NCI-H1048; type: cell-based; details: 5 days compound exposure, 1:3 serial dilution starting at 10 μM;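 also: Dose-response in 96-well plates over 8 or 10 concentration points, with exposure spanning 3-4 cell doublings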
# [2] = target: T1, CyclinB1/CDK1 (Homo sapiens, UniProt P14635); test: Fluorescence Polarization (FP) competitive binding assay, Cyclin B1/Cdk1;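 also: fluorescence polarization read after equilibration at room temperature, with IC50 taken from serially diluted dose-response curves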
# T1 construct: purchased Eurofins, discovery 14-450
# [3] = system: OVCAR3 cells; test: MTT proliferation assay, OVCAR3; type: cell-based; details: 5 days compound exposure, 1:3 serial dilution starting at 10 μM;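 also: compound given as an 8- or 10-point series, one day after plating, with exposure covering roughly 3-4 cell doublings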
# [4] = target: T2, CyclinE1/CDK2 (Homo sapiens, UniProt P24864); test: Fluorescence Polarization (FP) competitive binding assay, Cyclin E1/Cdk2;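 also: readings taken after two-hour equilibration at room temperature in HEPES buffer with NaCl, DTT, NP-40 and BSA, IC50 fitted from eight-concentration serial dilution series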
# T2 construct: purchased Eurofins, discovery 14-475
# [5] = target: T3, CyclinA2/CDK2 (Homo sapiens, UniProt P20248); test: Fluorescence Polarization (FP) competitive binding assay, Cyclin A2/Cdk2;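 also: plates equilibrated two hours at room temperature before polarization reading, IC50 fitted from eight-concentration compound titration curves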
# T3 construct: purchased CRELUX Protein Services
# [6] = 10 nM Cyclin B1/Cdk1, 2 nM FAM probe; average of 2-3 independent experiments; read-out: Cyclin B FP IC50
# [7] = 10 nM Cyclin E1/Cdk2, 2 nM FAM probe, average of 2-3 independent experiments, read-out: Cyclin E FP IC50
# [8] = 8 nM Cyclin A2/Cdk2, 2 nM FAM probe; average of 2-3 independent experiments; read-out: Cyclin A FP IC50
Structure (SMILES),GI50 [1] [nM],"IC50 [2, 6] [nM]",GI50 [3] [nM],"IC50 [4, 7] [nM]","IC50 [5, 8] [nM]","IC50 ([2]; read-out: Cyclin B FP IC50; 10 nM Cyclin B1/Cdk1, 2 nM FAM probe; average of 2-3 independent experiments) [nM]",IC50 [4] [nM],"IC50 ([5]; read-out: Cyclin A FP IC50; 8 nM Cyclin A2/Cdk2, 2 nM FAM probe; average of 2-3 independent experiments) [nM]"
"CC(C)C[C@@H]1NC(=O)[C@@H](N(C)C(=O)[C@@H](NC(=O)[C@@H]2C[C@@H](F)CN2C(=O)C2(C(F)(F)F)CC(F)(F)C2)C2CC2)CCCCCCCN(C)C(=O)[C@H](Cc2cc(F)cc3cccnc23)N(C)C1=O [Example 423] ({cBuCO(3,3-F2-1-CF3)}-[Pro(trans-4-F)][Gly(cPr)][NMehhhLys(Me)]L[X143]; lactam 3-C)",200,20,70,710,720,,,
CC(=O)N1[C@H]2CC[C@@H]1C=C(c1ccc(F)cc1C[C@H]1C(=O)N(C)CCCCCCC[C@H](N(C)C(=O)[C@@H](NC(=O)[C@@H]3C[C@@H](F)CN3C(=O)C3(C(F)(F)F)CC(F)(F)C3)C3CC3)C(=O)N[C@@H](CC(C)C)C(=O)N1C)C2 [Example 58],10,,10,,,20,620,20
"CC(C)C[C@@H]1NC(=O)[C@@H](N(C)C(=O)[C@@H](NC(=O)[C@@H]2C[C@@H](F)CN2C(=O)C2(C(F)(F)F)CC(F)(F)C2)C2CC2)CCCCCCCN(C)C(=O)[C@H](Cc2cc(F)ccc2-c2cn(C)cn2)N(C)C1=O [Example 164] ({cBuCO(3,3-F2-1-CF3)}-[Pro(trans-4-F)][Gly(cPr)][NMehhhLys(Me)]L[X207]; lactam 3-C)",30,20,30,930,70,,,
"CC(C)C[C@@H]1NC(=O)[C@@H](N(C)C(=O)[C@@H](NC(=O)[C@@H]2C[C@@H](F)CN2C(=O)C2(C(F)(F)F)CC(F)(F)C2)C2CC2)CCCCCCCNC(=O)[C@H](Cc2cc(Cl)ccc2-c2ccnnc2)N(C)C1=O [Example 291] ({cBuCO(3,3-F2-1-CF3)}-[Pro(trans-4-F)][Gly(cPr)][NMe(hhhLys)]L[X194]; lactam 3-C)",120,20,150,5160,70,,,
"CC(C)C[C@@H]1NC(=O)[C@@H](N(C)C(=O)[C@H](CCc2ccc(C#N)nc2)NC(=O)[C@@H]2C[C@@H](F)CN2C(=O)C2(C(F)(F)F)CC(F)(F)C2)CCCCCCCN(C)C(=O)[C@H](Cc2cc(Cl)ccc2-c2ccc(N3CCOCC3)cc2)N(C)C1=O [Example 416] ({cBuCO(3,3-F2-1-CF3)}-[Pro(trans-4-F)][X182][NMehhhLys(Me)]L[NMePhe(2-(4-MorPh),5-Cl)]; lactam 3-C)",30,20,40,3980,40,,,
"CC(C)C[C@@H]1NC(=O)[C@@H](N(C)C(=O)[C@@H](NC(=O)[C@@H]2C[C@@H](F)CN2C(=O)C2(C(F)(F)F)CC(F)(F)C2)C2CC2)CCCCCCCNC(=O)[C@H](Cc2cc(Cl)ccc2C2=C[C@@H]3CC[C@H](C2)N3C(=O)C(C)C)N(C)C1=O [Example 312] ({cBuCO(3,3-F2-1-CF3)}-[Pro(trans-4-F)][Gly(cPr)][NMe(hhhLys)]L[X146]; lactam 3-C)",20,20,30,740,20,,,
"CC(C)C[C@@H]1NC(=O)[C@@H](N(C)C(=O)[C@@H](NC(=O)[C@@H]2C[C@@H](F)CN2C(=O)C2(C(F)(F)F)CC(F)(F)C2)C2CC2)CCCCCCCN(C)C(=O)[C@H](Cc2cc(Cl)ccc2-c2ccc(N3CCOC(C)(C)C3)cc2)N(C)C1=O [Example 366] ({cBuCO(3,3-F2-1-CF3)}-[Pro(trans-4-F)][Gly(cPr)][NMehhhLys(Me)]L[X185]; lactam 3-C)",20,20,20,1050,20,,,
"Cc1cc(-c2ccc(F)cc2C[C@H]2C(=O)NCCCCCCC[C@H](N(C)C(=O)[C@@H](NC(=O)[C@@H]3C[C@@H](F)CN3C(=O)C3(C(F)(F)F)CC(F)(F)C3)C3CC3)C(=O)N[C@@H](CC(C)C)C(=O)N2C)cnn1 [Example 294] ({cBuCO(3,3-F2-1-CF3)}-[Pro(trans-4-F)][Gly(cPr)][NMe(hhhLys)]L[X117]; lactam 3-C)",80,20,130,1440,80,,,
CC(C)C[C@@H]1NC(=O)[C@@H](N(C)C(=O)[C@@H](NC(=O)[C@@H]2C[C@@H](F)CN2C(=O)C2(C(F)(F)F)CCC2)C2CC2)CCCCCCCN(C)C(=O)[C@H](Cc2cc(F)ccc2-c2cnn(CC(F)F)c2)N(C)C1=O [Example 92] ({Cyclobutanecarbonyl(1-CF3)}-[Pro(trans-4-F)][Gly(cPr)][NMehhhLys(Me)]L[X208]; lactam 3-C),10,20,10,100,20,,,
